Assay results: the NIST ThermoML archive (doi:10.1021/je060247x)
± gives the expanded uncertainty stated by the source.

Settings: Liquid

With `CCCCCCn1cc[n+](C)c1.F[P-](F)(F)(F)(F)F` [1-hexyl-3-methylimidazolium hexafluorophosphate] the mass density (293.15 K, 100 kPa) was 1299.8 ± 3.1 kg/m3, the mass density (293.15 K, 1000 kPa) was 1300.3 ± 3.3 kg/m3 and the mass density (293.15 K, 2000 kPa) was 1300.8 ± 3.4 kg/m3. It also gave a mass density (293.15 K, 3000 kPa) of 1301.4 ± 3.6 kg/m3, a mass density (293.15 K, 4000 kPa) of 1301.9 ± 3.7 kg/m3 and a mass density (293.15 K, 5000 kPa) of 1302.4 ± 3.8 kg/m3. It also gave a mass density (293.15 K, 10000 kPa) of 1304.9 ± 4.6 kg/m3, a mass density (303.15 K, 100 kPa) of 1290.6 ± 3.1 kg/m3 and a mass density (303.15 K, 1000 kPa) of 1291.1 ± 3.2 kg/m3. For the same compound, the mass density (303.15 K, 2000 kPa) was 1291.7 ± 3.3 kg/m3, the mass density (303.15 K, 3000 kPa) was 1292.2 ± 3.5 kg/m3 and the mass density (303.15 K, 4000 kPa) was 1292.7 ± 3.6 kg/m3. For the same compound, the mass density (303.15 K, 5000 kPa) was 1293.2 ± 3.8 kg/m3, the mass density (303.15 K, 10000 kPa) was 1295.8 ± 4.5 kg/m3 and the mass density (313.15 K, 100 kPa) was 1281.5 ± 3 kg/m3. The mass density (313.15 K, 1000 kPa) was 1282 ± 3.1 kg/m3, the mass density (313.15 K, 2000 kPa) was 1282.6 ± 3.3 kg/m3 and the mass density (313.15 K, 3000 kPa) was 1283.1 ± 3.4 kg/m3. The mass density (313.15 K, 4000 kPa) was 1283.7 ± 3.5 kg/m3, the mass density (313.15 K, 5000 kPa) was 1284.3 ± 3.7 kg/m3 and the mass density (313.15 K, 10000 kPa) was 1287 ± 4.4 kg/m3. For the same compound, the mass density (323.15 K, 100 kPa) was 1272.7 ± 3 kg/m3, the mass density (323.15 K, 1000 kPa) was 1273.2 ± 3.1 kg/m3 and the mass density (323.15 K, 2000 kPa) was 1273.9 ± 3.2 kg/m3. For the same compound, the mass density (323.15 K, 3000 kPa) was 1274.5 ± 3.3 kg/m3, the mass density (323.15 K, 4000 kPa) was 1275 ± 3.5 kg/m3 and the mass density (323.15 K, 5000 kPa) was 1275.6 ± 3.6 kg/m3. The mass density (323.15 K, 10000 kPa) was 1278.5 ± 4.3 kg/m3, the mass density (333.15 K, 100 kPa) was 1264.2 ± 2.9 kg/m3 and the mass density (333.15 K, 1000 kPa) was 1264.8 ± 3 kg/m3. It also gave a mass density (333.15 K, 2000 kPa) of 1265.4 ± 3.1 kg/m3, a mass density (333.15 K, 3000 kPa) of 1266 ± 3.3 kg/m3 and a mass density (333.15 K, 4000 kPa) of 1266.6 ± 3.4 kg/m3. For the same compound, the mass density (333.15 K, 5000 kPa) was 1267.3 ± 3.5 kg/m3, the mass density (333.15 K, 10000 kPa) was 1270.3 ± 4.2 kg/m3 and the mass density (343.15 K, 100 kPa) was 1256.1 ± 2.8 kg/m3. For the same compound, the mass density (343.15 K, 1000 kPa) was 1256.7 ± 3 kg/m3, the mass density (343.15 K, 2000 kPa) was 1257.3 ± 3.1 kg/m3 and the mass density (343.15 K, 3000 kPa) was 1258 ± 3.2 kg/m3. The mass density (343.15 K, 4000 kPa) was 1258.6 ± 3.3 kg/m3, the mass density (343.15 K, 5000 kPa) was 1259.2 ± 3.5 kg/m3 and the mass density (343.15 K, 10000 kPa) was 1262 ± 4.1 kg/m3. For the same compound, the mass density (353.15 K, 100 kPa) was 1248 ± 2.8 kg/m3, the mass density (353.15 K, 1000 kPa) was 1248.6 ± 2.9 kg/m3 and the mass density (353.15 K, 2000 kPa) was 1249.2 ± 3 kg/m3. For the same compound, the mass density (353.15 K, 3000 kPa) was 1249.9 ± 3.1 kg/m3, the mass density (353.15 K, 4000 kPa) was 1250.5 ± 3.3 kg/m3 and the mass density (353.15 K, 5000 kPa) was 1251.2 ± 3.4 kg/m3. It also gave a mass density (353.15 K, 10000 kPa) of 1254.2 ± 4 kg/m3, a mass density (363.15 K, 100 kPa) of 1240.6 ± 2.7 kg/m3 and a mass density (363.15 K, 1000 kPa) of 1241.2 ± 2.9 kg/m3. The mass density (363.15 K, 2000 kPa) was 1242 ± 3 kg/m3, the mass density (363.15 K, 3000 kPa) was 1242.6 ± 3.1 kg/m3 and the mass density (363.15 K, 4000 kPa) was 1243.3 ± 3.2 kg/m3. For the same compound, the mass density (363.15 K, 5000 kPa) was 1244 ± 3.3 kg/m3, the mass density (363.15 K, 10000 kPa) was 1247.2 ± 3.9 kg/m3 and the mass density (373.15 K, 100 kPa) was 1233.4 ± 2.7 kg/m3. It also gave a mass density (373.15 K, 1000 kPa) of 1234.1 ± 2.8 kg/m3, a mass density (373.15 K, 2000 kPa) of 1234.9 ± 2.9 kg/m3 and a mass density (373.15 K, 3000 kPa) of 1235.6 ± 3 kg/m3. It also gave a mass density (373.15 K, 4000 kPa) of 1236.3 ± 3.2 kg/m3, a mass density (373.15 K, 5000 kPa) of 1237 ± 3.3 kg/m3 and a mass density (373.15 K, 10000 kPa) of 1240.3 ± 3.9 kg/m3. It also gave a mass density (383.15 K, 100 kPa) of 1226.4 ± 2.7 kg/m3, a mass density (383.15 K, 1000 kPa) of 1227.2 ± 2.8 kg/m3 and a mass density (383.15 K, 2000 kPa) of 1227.9 ± 2.9 kg/m3. It also gave a mass density (383.15 K, 3000 kPa) of 1228.7 ± 3 kg/m3, a mass density (383.15 K, 4000 kPa) of 1229.4 ± 3.1 kg/m3 and a mass density (383.15 K, 5000 kPa) of 1230.1 ± 3.2 kg/m3. For the same compound, the mass density (383.15 K, 10000 kPa) was 1233.6 ± 3.8 kg/m3, the mass density (393.15 K, 100 kPa) was 1219.4 ± 2.6 kg/m3 and the mass density (393.15 K, 1000 kPa) was 1220.1 ± 2.7 kg/m3. For the same compound, the mass density (393.15 K, 2000 kPa) was 1220.9 ± 2.8 kg/m3, the mass density (393.15 K, 3000 kPa) was 1221.7 ± 2.9 kg/m3 and the mass density (393.15 K, 4000 kPa) was 1222.5 ± 3 kg/m3. It also gave a mass density (393.15 K, 5000 kPa) of 1223.3 ± 3.2 kg/m3 and a mass density (393.15 K, 10000 kPa) of 1227 ± 3.7 kg/m3.
